Target: T1, soluble epoxide hydrolase (sEH) (Homo sapiens, UniProt P34913)
T1 construct: gene EPHX2
T1 sequence (P34913 1-555): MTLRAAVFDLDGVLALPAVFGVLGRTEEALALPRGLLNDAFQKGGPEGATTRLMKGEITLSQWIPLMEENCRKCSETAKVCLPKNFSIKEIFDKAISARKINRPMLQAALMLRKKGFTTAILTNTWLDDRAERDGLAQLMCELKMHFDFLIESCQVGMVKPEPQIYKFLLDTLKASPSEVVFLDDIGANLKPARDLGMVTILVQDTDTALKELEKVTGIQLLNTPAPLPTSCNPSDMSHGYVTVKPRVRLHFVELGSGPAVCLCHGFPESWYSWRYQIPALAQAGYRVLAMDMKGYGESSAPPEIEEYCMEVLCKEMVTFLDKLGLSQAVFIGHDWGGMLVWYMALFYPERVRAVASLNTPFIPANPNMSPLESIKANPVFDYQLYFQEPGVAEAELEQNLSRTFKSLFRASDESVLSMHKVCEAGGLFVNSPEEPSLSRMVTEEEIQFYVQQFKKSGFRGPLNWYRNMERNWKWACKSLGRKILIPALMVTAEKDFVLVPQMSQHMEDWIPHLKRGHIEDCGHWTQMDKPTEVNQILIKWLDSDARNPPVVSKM
Experiment: fluorescence assay with recombinant human sEH and PHOME substrate
Format: biochemical

C=CCc1cc(OC)c(O[C@@H]2O[C@H](CO)[C@@H](O)[C@H](O)[C@H]2O)c(OC)c1 [compound 5, erigeside II]
IC50: 58.5 ± 0.5 µM
